The results in this text go back to patent US8357634B2, “N-alkoxycarboxamides and their use as microbiocides” (Syngenta Crop Protection LLC, priority 2009, dated 2013).

Bounds are passed on as bounds.

Data set [1] concerns Puccinia recondita. Description: Example B-7: Curative action against Puccinia recondita (brown rust) on wheat leaf segments. Format: in vivo. The conditions noted are these: 0.02% active ingredient sprayed one day after inoculation, 8 days after inoculation; for inhibition at 0.02 % strength: Puccinia recondita, foliar, read-out: curative fungicidal activity (inhibition). As for the experimental part:
Curative Action Against Puccinia recondita (Brown Rust) on Wheat Wheat leaf segments were placed on agar in multiwell plates (24-well format) and inoculated with a spore suspension of the fungus. One day after inoculation the leaf segments were sprayed with test solutions (0.02% active ingredient). After appropriate incubation the activity of a compound was assessed 8 days after inoculation as curative fungicidal activity.

The test system of data set [2] is Pyrenophora teres. Description: Example B-8: Action against Pyrenophora teres (net blotch) on barley leaf segments. Format: in vivo. The conditions noted are these: foliar, 96 h, 0.02% active ingredient, 4 days after inoculation, read-out: preventive fungicidal activity (inhibition). As for the experimental part: Action Against Pyrenophora teres (Net Blotch) on Barley Barley leaf segments were placed on agar in multiwell plates (24-well format) and sprayed with test solutions (0.02% active ingredient). After drying, the leaf disks were inoculated with a spore suspension of the fungus. After appropriate incubation the activity of a compound was assessed 4 days after inoculation as preventive fungicidal activity.

Data set [3] concerns Puccinia recondita. Put plainly: Example B-6: Protective action against Puccinia recondita (brown rust) on wheat leaf segments. The conditions noted are these: foliar, 192 h, 0.02% active ingredient, 8 days after inoculation, read-out: preventive fungicidal activity (inhibition). The data set is classed as in vivo. On the procedure: Protective Action Against Puccinia recondita (Brown Rust) on Wheat Wheat leaf segments were placed on agar in multiwell plates (24-well format) and sprayed with test solutions (0.02% active ingredient). After drying, the leaf disks were inoculated with a spore suspension of the fungus. After appropriate incubation the activity of a compound was assessed 8 days after inoculation as preventive fungicidal activity.

For data set [4], the system named is Septoria tritici. Put plainly: Example B-3: Action against Septoria tritici, fungal growth assay. The conditions noted are these: Zymoseptoria tritici; 0.002% active ingredient; PDB broth, 24° C., photometric after 72 hrs. The data set is classed as cell-based. On the procedure: (§1) Action Against Septoria tritici—Fungal Growth Assay Conidia of the fungus from cryogenic storage were directly mixed into nutrient broth (PDB potato dextrose broth). After placing a (DMSO) solution of the test compounds (0.002% active ingredient) into a microtiter plate (96-well format) the nutrient broth containing the fungal spores was added. The test plates were incubated at 24° C. and the inhibition of growth was determined photometrically after 72 hrs. The activity of a compound was expressed as fungal growth inhibition (0=no growth inhibition, ratings of 80% to 99% mean good to very good inhibition, 100%=complete inhibition).

The subject of data set [5] is Mycosphaerella arachidis (Cercospora arachidicola). Description: Example B-2: Action against Mycosphaerella arachidis, fungal growth assay. The data set is classed as cell-based. The conditions noted are these: 0.002% active ingredient, PDB broth, 24° C., photometric after 6-7 days. As for the experimental part:
as §1, with “Mycosphaerella arachidis (Early Leaf Spot of Groundnut; Cercospora arachidicola [fanamorph])—Fungal” for “Septoria tritici—Fungal”, “measured” for “determined”, “6-7 days.” for “72 hrs.”

Data set [6] deals with Botrvtis cinerea. Put plainly: Example B-1: Action against Botrytis cinerea, fungal growth assay. The data set is classed as cell-based. As to conditions: 0.002% active ingredient, PDB broth, 24° C., photometric after 3-4 days. On the procedure: as §1, with “Action against Botrvtis cinerea—fungal growth assay” for “Action Against Septoria tritici—Fungal Growth Assay”, “storage was” for “storage were”, “was measured” for “was determined”, “after 3-4 days.” for “after 72 hrs.”

Data set [7] has as its system Erysiphe graminis f. sp. tritici. Put plainly: Example B-5: Action against Erysiphe graminis f. sp. tritici (wheat powdery mildew), wheat leaf segments. The data set is classed as in vivo. The conditions noted are these: Blumeria graminis, foliar, 168 h, 0.02% active ingredient, 7 days after inoculation, read-out: preventive fungicidal activity (inhibition). On the procedure: Action Against Erysiphe graminis f. sp. tritici (Wheat Powdery Mildew) Wheat leaf segments were placed on agar in multiwell plates (24-well format) and sprayed with test solutions (0.02% active ingredient). After drying, the leaf disks were inoculated with a spore suspension of the fungus. After appropriate incubation the activity of a compound was assessed 7 days after inoculation as preventive fungicidal activity.

The term inhibition denotes the change of the read-out against control, counted positive when it falls. One may read the melting point as the temperature of the solid-liquid transition.

On to `CON(Cc1ccc(Cl)cc1Cl)C(=O)c1cn(C)nc1C(F)F` [Compound 1.091, 3-difluoromethyl-1-methyl-1H-pyrazole-4-carboxylic acid (2,4-dichlorobenzyl)-methoxy-amide], for which the inhibition at 0.02 % strength in data set [1] was 50%; in data set [2] it was ≥ 80%; in data set [3] it was ≥ 80%. The inhibition at 0.002 % strength in data set [4] and in data set [5] was ≥ 80% each time.

Take `CON(C(=O)c1cn(C)nc1C(F)F)C(C)c1cccc(-c2ccc(Cl)c(Cl)c2)c1` (stereo not drawn) [Compound 1.020, 3-difluoromethyl-1-methyl-1H-pyrazole-4-carboxylic acid [1-(3′,4′-dichloro-biphenyl-3-yl)-ethyl]-methoxy-amide]: the melting point was in the range of 162 to 164 °C. Also, in data set [6], the inhibition at 0.002 % strength is ≥ 80%. Moreover, the inhibition at 0.02 % strength in data set [2] is ≥ 80%. Further, in data set [3], the inhibition at 0.02 % strength was ≥ 80%. In data set [4], the inhibition at 0.002 % strength is ≥ 80%. Besides, in data set [5], the inhibition at 0.002 % strength was ≥ 80%.

In the case of `CON(C(=O)c1cn(C)nc1C(F)F)C(CF)c1ccc(Cl)cc1` (stereo not drawn) [Compound 1.107], the “curative fungicidal activity (inhibition)” value in data set [1] amounted to 50%.

Molecule `CON(Cc1cccc(I)c1)C(=O)c1cn(C)nc1C(F)F` [Compound 1.097, 3-difluoromethyl-1,1-dimethyl-1H-pyrazole-4-carboxylic acid (3-iodo-benzyl)-methoxy-amide] gave a melting point of 114 to 116 °C. The inhibition at 0.002 % strength in data set [6] is ≥ 80%. For the same molecule, the inhibition at 0.002 % strength in data set [4] was ≥ 80%. In addition, the inhibition at 0.002 % strength in data set [5] was ≥ 80%.

As to `CON(C(=O)c1cn(C)nc1C(F)F)C(C)c1ccc(I)cc1` (stereo not drawn) [Compound 1.003, 3-difluoromethyl-1-methyl-1H-pyrazole-4-carboxylic acid [1-(4-iodo-phenyl)-ethyl]-methoxy-amide], the melting point was in the range of 72 to 74 °C. Besides, the inhibition at 0.02 % strength in data set [2] is ≥ 80%. In addition, in data set [7], the inhibition at 0.02 % strength is ≥ 80%. Moreover, the inhibition at 0.02 % strength in data set [3] is ≥ 80%. The inhibition at 0.002 % strength in data set [4] is ≥ 80%. For the same molecule, the inhibition at 0.002 % strength in data set [5] was ≥ 80%.

For `CON(C(=O)c1cn(C)nc1C(F)F)C(C)c1cccc(I)c1` (stereo not drawn) [Compound 1.014, 3-Difluoromethyl-1-methyl-1H-pyrazole-4-carboxylic acid [1-(3-iodo-phenyl)-ethyl]-methoxy-amide], the melting point lay in the range of 136 to 138 °C. In addition, in data set [1], the inhibition at 0.02 % strength was ≥ 80%. For the same molecule, the inhibition at 0.002 % strength in data set [6] was ≥ 80%. Moreover, in data set [2], the inhibition at 0.02 % strength was ≥ 80%. The inhibition at 0.02 % strength in data set [7] is ≥ 80%. Besides, the inhibition at 0.02 % strength in data set [3] was ≥ 80%. In addition, in data set [4], the inhibition at 0.002 % strength was ≥ 80%. Moreover, the inhibition at 0.002 % strength in data set [5] was ≥ 80%.
